# Results: patent US20260085039A1 (priority 2022, published 2026)
# “Also recorded” adds a separate entry of the source. Where two headings read alike, the source gives them in different places.
# Assays:
# [1] = acid for salt screen; cited from earlier work
# [2] = Drying studies, form by XRPD after vacuum drying; type: physicochemical; details: RT, 1 d
# Experimental: XRPD patterns were collected with a PANalytical X'Pert PRO MPD or Empyrean diffractometer using an incident beam of Cu radiation produced using an Optix long, fine-focus source. An elliptically graded multilayer mirror was used to focus Cu Kα X-ray radiation through the specimen and onto the detector. Prior to the analysis, a silicon specimen (NIST SRM 640f) was analyzed to verify the observed position of the Si (111) peak is consistent with the NIST-certified position. A specimen of the sample was sandwiched between 3-μm-thick films and analyzed in transmission geometry. A beam-stop, short antiscatter extension, and antiscatter knife edge were used to minimize the background generated by air. Soller slits for the incident and diffracted beams were used to minimize broadening from axial divergence. Diffraction patterns were collected using a scanning position-sensitive detector (X'Celerator) located 240 mm from the specimen and Data Collector software v. 5.5.
# [3] = Solubility (appearance) and pH in saline; type: physicochemical
# [4] = Approximate solubility by solvent aliquot addition, visual inspection, ambient temperature; type: physicochemical
# Experimental: Weighed samples were treated with aliquots of designated solvent at ambient temperature. Complete dissolution of the test material was determined by visual inspection. Solubility was estimated based on the total solvent volume used to provide the complete dissolution. If complete dissolution was achieved by only one aliquot addition, the value is reported as “larger than”; if complete dissolution was not achieved, the value is reported as “less than”. The actual solubility may be greater than the value calculated because of the use of solvent aliquots that were too large or due to a slow rate of dissolution.
# [5] = Observation of solubility samples after 1 day ambient storage (discoloration); type: physicochemical
# Source text: The solubility estimates were utilized to design experiments for the salt screen.
# [6] = Stability in saline by HPLC psilocin peak area over time; details: aqueous solution such as saline, 36 hours
smiles,measurement,setting,value
O=C(O)C=C(CC(=O)O)C(=O)O [Aconitic acid],pKa1,[1],2.80
O=S(=O)(O)c1ccccc1 [Benzesulfonic acid],pKa1,[1],0.17
CN(C)CCc1c[nH]c2cccc(O)c12.O=C(O)c1ccccc1 [Benzoate Form A],XRPD Result after drying,[2],maintains the same form; also recorded: Benzoate Form A
O=C1O[C@H]([C@H](O)CO)C(O)=C1O [Erythorbic acid],pKa1,[1],2.1
CCCC(=O)O.CN(C)CCc1c[nH]c2cccc(O)c12 [Psilocin butyrate],Appearance in solution,[3]; 1.0 mg/mL in saline,"Visually soluble, clear solution"
same,pH,[3]; 1.0 mg/mL in saline,6.281
O=C1CC[C@@H](C(=O)O)N1 [Pyrogluatmic acid],pKa1,[1],3.32
C/C=C/C=C/C(=O)O [Sorbic acid],pKa1,[1],4.75
"CN(C)CCc1c[nH]c2cccc(O)c12 [psilocin, 4-hydroxy-N,N-dimethyltryptamine]",solubility,"[4]; ACN, ambient temperature, estimated",9 mg/mL
same,solubility,"[4]; EtOAc, ambient temperature, estimated",8 mg/mL
same,solubility,"[4]; ethanol, organic solvent or mixture, thermodynamic from solid, EtOH, ambient temperature, estimated, read-out: Solubility",< 1 mg/mL
same,solubility,"[4]; methanol, organic solvent or mixture, thermodynamic from solid, MeOH, ambient temperature, estimated, read-out: Solubility",< 1 mg/mL
same,solubility,"[4]; organic solvent or mixture, thermodynamic from solid, Acetone, ambient temperature, estimated, read-out: Solubility",20 mg/mL
same,solubility,"[4]; organic solvent or mixture, thermodynamic from solid, Dioxane, ambient temperature, estimated, read-out: Solubility",18 mg/mL
same,solubility,"[4]; other organic solvents (not water, not alcohols), organic solvent or mixture, thermodynamic from solid, read-out: Solubility",≥ 8 mg/mL
same,solubility,"[4]; tetrahydrofuran, organic solvent or mixture, thermodynamic from solid, THF, ambient temperature, estimated, read-out: Solubility",18 mg/mL
same,solubility,[4]; water and alcohols,poorly soluble
same,solubility,"[4]; water, thermodynamic from solid, H20, ambient temperature, estimated, read-out: Solubility",< 1 mg/mL
same,Observation after 1 day ambient storage,[5]; ACN,No discoloration
same,Observation after 1 day ambient storage,[5]; Acetone,No discoloration
same,Observation after 1 day ambient storage,[5]; Dioxane,No discoloration
same,Observation after 1 day ambient storage,[5]; EtOAc,No discoloration
same,Observation after 1 day ambient storage,[5]; EtOH,No discoloration
same,Observation after 1 day ambient storage,[5]; H20,Discoloration (black suspension)
same,Observation after 1 day ambient storage,"[5]; H20, listed as Psilocin free base",strong discoloration (black)
same,Observation after 1 day ambient storage,[5]; MeOH,No discoloration
same,Observation after 1 day ambient storage,[5]; THF,No discoloration
same,Appearance in solution,[3]; 0.1 mg/mL in saline,"Visually soluble, clear solution"
same,pH,[3]; 0.1 mg/mL in saline,9.053
same,Appearance in solution,[3]; 1.0 mg/mL in saline,"Cloudy solution, not soluble"
same,pH,[3]; 1.0 mg/mL in saline,9.395
same,decrease in the amount of psilocin present over time,[6],≥ 15%
